The structures appear in SMILES notation.

This assay deals with PLK1 (Homo sapiens, UniProt P53350). As to the kind of experiment: PLK1 protein kinase assay (CDC25C phosphorylation, [γ-32P]-ATP). It counts as biochemical. The note with it: Table 2, PLK1 IC50; class symbols; read-out: PLK1 IC50.
Chain of PLK1 (P53350 whole entry): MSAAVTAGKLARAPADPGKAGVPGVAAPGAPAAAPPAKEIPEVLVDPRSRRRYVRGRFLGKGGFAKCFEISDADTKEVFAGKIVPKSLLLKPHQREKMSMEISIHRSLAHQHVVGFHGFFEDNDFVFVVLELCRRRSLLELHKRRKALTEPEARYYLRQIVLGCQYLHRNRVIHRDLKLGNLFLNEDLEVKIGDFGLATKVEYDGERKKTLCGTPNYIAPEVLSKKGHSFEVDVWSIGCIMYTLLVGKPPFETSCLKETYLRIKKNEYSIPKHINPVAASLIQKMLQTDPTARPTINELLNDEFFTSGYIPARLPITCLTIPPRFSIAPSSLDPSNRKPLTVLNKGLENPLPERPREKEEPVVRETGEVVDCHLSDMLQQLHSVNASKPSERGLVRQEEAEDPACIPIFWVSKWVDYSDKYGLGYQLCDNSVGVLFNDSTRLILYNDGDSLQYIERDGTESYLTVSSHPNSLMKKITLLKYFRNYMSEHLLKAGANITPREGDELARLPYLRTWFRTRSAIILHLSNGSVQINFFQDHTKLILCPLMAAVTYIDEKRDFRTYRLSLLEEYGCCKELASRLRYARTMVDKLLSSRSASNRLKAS
As usually defined, the IC50 is the concentration that gives 50% inhibition. As to `COc1ccc(C(=O)NC2CCN(Cc3ccccc3)C2)cc1Nc1ncc2c(n1)N(C1CCCC1)CCC(=O)N2C` (stereo not shown) [compound 265, N-(1-Benzyl-pyrrolidin-3-yl)-3-(9-cyclopentyl-5-methyl-6-oxo-6,7,8,9-tetrahydro-5H-pyrimido[4,5-b][1,4]diazepin-2-ylamino)-4-methoxy-benzamide], the 50% inhibitory concentration (IC50) is below 1000 nM.
With `COc1ccc(C(=O)NCCN2CCOCC2)cc1Nc1ncc2c(n1)N(C1CCCC1)CCC(=O)N2C` [compound 266, 3-(9-Cyclopentyl-5-methyl-6-oxo-6,7,8,9-tetrahydro-5H-pyrimido[4,5-b][1,4]diazepin-2-ylamino)-4-methoxy-N-(2-morpholin-4-yl-ethyl)-benzamide], the IC50 is below 1000 nM.
For `COc1ccc(C(=O)NCCc2c[nH]cn2)cc1Nc1ncc2c(n1)N(C1CCCC1)CCC(=O)N2C` [compound 267, 3-(9-Cyclopentyl-5-methyl-6-oxo-6,7,8,9-tetrahydro-5H-pyrimido[4,5-b][1,4]diazepin-2-ylamino)-N-[2-(1H-imidazol-4-yl)-ethyl]-4-methoxy-benzamide], the IC50 is below 1000 nM.
On to `COc1ccc(C(=O)NCc2cccn2C)cc1Nc1ncc2c(n1)N(C1CCCC1)CCC(=O)N2C` [compound 268, 3-(9-Cyclopentyl-5-methyl-6-oxo-6,7,8,9-tetrahydro-5H-pyrimido[4,5-b][1,4]diazepin-2-ylamino)-4-methoxy-N-(1-methyl-1H-pyrrol-2-ylmethyl)-benzamide], for which the concentration for half-maximal inhibition (IC50) was below 1000 nM.
The same measure for `COc1ccc(C(=O)NCC2CCCCN2C)cc1Nc1ncc2c(n1)N(C1CCCC1)CCC(=O)N2C` (stereo not shown) [compound 269, 3-(9-Cyclopentyl-5-methyl-6-oxo-6,7,8,9-tetrahydro-5H-pyrimido[4,5-b][1,4]diazepin-2-ylamino)-4-methoxy-N-(1-methyl-piperidin-2-ylmethyl)-benzamide]: below 1000 nM; for `COCCNC(=O)c1ccc(OC)c(Nc2ncc3c(n2)N(C2CCCC2)CCC(=O)N3C)c1` [compound 270, 3-(9-Cyclopentyl-5-methyl-6-oxo-6,7,8,9-tetrahydro-5H-pyrimido[4,5-b][1,4]diazepin-2-ylamino)-4-methoxy-N-(2-methoxy-ethyl)-benzamide]: below 1000 nM; for `COc1ccc(C(=O)NC2CCN(Cc3ccccc3)CC2)cc1Nc1ncc2c(n1)N(C1CCCC1)CCC(=O)N2C` [compound 271, N-(1-Benzyl-piperidin-4-yl)-3-(9-cyclopentyl-5-methyl-6-oxo-6,7,8,9-tetrahydro-5H-pyrimido[4,5-b][1,4]diazepin-2-ylamino)-4-methoxy-benzamide]: below 1000 nM.
`COc1ccc(C(=O)NCCCCO)cc1Nc1ncc2c(n1)N(C1CCCC1)CCC(=O)N2C` [compound 272, 3-(9-Cyclopentyl-5-methyl-6-oxo-6,7,8,9-tetrahydro-5H-pyrimido[4,5-b][1,4]diazepin-2-ylamino)-N-(4-hydroxy-butyl)-4-methoxy-benzamide]: the IC50 is below 1000 nM.
As for `COc1ccc(C(=O)NCc2ccco2)cc1Nc1ncc2c(n1)N(C1CCCC1)CCC(=O)N2C` [compound 273, 3-(9-Cyclopentyl-5-methyl-6-oxo-6,7,8,9-tetrahydro-5H-pyrimido[4,5-b][1,4]diazepin-2-ylamino)-N-furan-2-ylmethyl-4-methoxy-benzamide], the figure is below 1000 nM; as for `CN1CCC(NC(=O)c2ccc(Nc3ncc4c(n3)N(C3CCCC3)CC3(CC3)C(=O)N4C)c(O)c2)CC1` [compound 274, 4-(9-Cyclopentyl-5-methyl-6-oxo-6,7,8,9-tetrahydro-5H-spiro[pyrimido[4,5-b][1,4]diazepin-3,1′-cyclopropane]-2-ylamino)-3-hydroxy-N-(1-methyl-piperidin-4-yl)-benzamide], below 1000 nM; as for `COc1cc(C(=O)O)ccc1Nc1ncc2c(n1)N(CC1CC1)CC(C)(C)C(=O)N2C` [compound 275, 4-(9-Cyclopropylmethyl-5,7,7-trimethyl-6-oxo-6,7,8,9-tetrahydro-5H-pyrimido[4,5-b][1,4]diazepin-2-ylamino)-3-methoxy-benzoic acid], below 1000 nM.
As for `COc1cc(C(=O)NC2CCN(C)CC2)ccc1Nc1ncc2c(n1)N(CC1CC1)CC(C)(C)C(=O)N2C` [compound 276, 4-(9-Cyclopropylmethyl-5,7,7-trimethyl-6-oxo-6,7,8,9-tetrahydro-5H-pyrimido[4,5-b][1,4]diazepin-2-ylamino)-3-methoxy-N-(1-methyl-piperidin-4-yl)-benzamide], the figure is below 1000 nM; as for `COc1cc(C(=O)NC2CCN(C)CC2)ccc1Nc1ncc2c(n1)N(c1ccccc1OC)CCC(=O)N2C` [compound 277, 3-Methoxy-4-[9-(2-methoxy-phenyl)-5-methyl-6-oxo-6,7,8,9-tetrahydro-5H-pyrimido[4,5-b][1,4]diazepin-2-ylamino]-N-(1-methyl-piperidin-4-yl)-benzamide], below 10000 nM.
Turning to `COc1cc(C(=O)NC2CC(C)(C)N(C)C(C)(C)C2)ccc1Nc1ncc2c(n1)N(c1ccccc1OC)CCC(=O)N2C` [compound 278, 3-Methoxy-4-[9-(2-methoxy-phenyl)-5-methyl-6-oxo-6,7,8,9-tetrahydro-5H-pyrimido[4,5-b][1,4]diazepin-2-ylamino]-N-(1,2,2,6,6-pentamethyl-piperidin-4-yl)-benzamide], the IC50 is below 10000 nM.
The same measure for `COc1cc(C(=O)NC2CN3CCC2CC3)ccc1Nc1ncc2c(n1)N(c1ccccc1OC)CCC(=O)N2C` (stereo not shown) [compound 279, N-(1-Aza-bicyclo[2.2.2]oct-3-yl)-3-methoxy-4-[9-(2-methoxy-phenyl)-5-methyl-6-oxo-6,7,8,9-tetrahydro-5H-pyrimido[4,5-b][1,4]diazepin-2-ylamino]-benzamide]: below 10000 nM.
For the compound `Cc1cc(C(=O)O)ccc1Nc1ncc2c(n1)N(C1CCCC1)CC1(CC1)C(=O)N2C` [compound 280, 4-(9-Cyclopentyl-5-methyl-6-oxo-6,7,8,9-tetrahydro-5H-pyrimido[4,5-b][1,4]diazepin-3,1′-cyclopropane-2-ylamino)-3-methyl-benzoic acid], the IC50 was below 10000 nM.
As for `CN1C(=O)C2(CC2)CN(C2CCCC2)c2nc(Nc3ccc(C(=O)O)cc3F)ncc21` [compound 283, 4-(9-Cyclopentyl-5-methyl-6-oxo-6,7,8,9-tetrahydro-5H-spiro[pyrimido[4,5-b][1,4]diazepin-3,1′-cyclopropane]-2-ylamino)-3-fluorobenzoic acid], the figure is below 100 nM; as for `CN1CCC(NC(=O)c2ccc(Nc3ncc4c(n3)N(C3CCCC3)CC3(CC3)C(=O)N4C)c(OC(F)(F)F)c2)CC1` [compound 284, 4-(9-Cyclopentyl-5-methyl-6-oxo-6,7,8,9-tetrahydro-5H-spiro[pyrimido[4,5-b][1,4]diazepin-3,1′-cyclopropane]-2-ylamino)-3-trifluoromethoxy-N-(1-methyl-piperidin-4-yl)-benzamide], below 100 nM; as for `Cc1cc(C(=O)NC2CCN(C)CC2)ccc1Nc1ncc2c(n1)N(C1CCCC1)CC1(CC1)C(=O)N2C` [compound 301], below 1000 nM.
In the case of `COc1cc(C(=O)NC2CCN(C)CC2)ccc1Nc1ncc2c(n1)N(CC(C)C)CCC(=O)N2C` [compound 302, 4-(9-Isobutyl-5-methyl-6-oxo-6,7,8,9-tetrahydro-5H-pyrimido[4,5-b][1,4]diazepin-2-ylamino)-3-methoxy-N-(1-methyl-piperidin-4-yl)-benzamide], the IC50 was below 1000 nM.
Consider `COc1cc(C(=O)NC2CCCN(C)C2)ccc1Nc1ncc2c(n1)N(CC(C)C)CCC(=O)N2C` (stereo not shown) [compound 303, 4-(9-Isobutyl-5-methyl-6-oxo-6,7,8,9-tetrahydro-5H-pyrimido[4,5-b][1,4]diazepin-2-ylamino)-3-methoxy-N-(1-methyl-piperidin-3-yl)-benzamide], for which the IC50 was below 1000 nM.
As for `COc1cc(C(=O)NC2CCN(Cc3ccccc3)CC2)ccc1Nc1ncc2c(n1)N(CC(C)C)CCC(=O)N2C` [compound 304, N-(1-Benzyl-piperidin-4-yl)-4-(9-isobutyl-5-methyl-6-oxo-6,7,8,9-tetrahydro-5H-pyrimido[4,5-b][1,4]diazepin-2-ylamino)-3-methoxy-benzamide], the figure is below 1000 nM.
In the case of `COc1cc(C(=O)NC2CN3CCC2CC3)ccc1Nc1ncc2c(n1)N(CC(C)C)CCC(=O)N2C` (stereo not shown) [compound 305, N-(1-Aza-bicyclo[2.2.2]oct-3-yl)-4-(9-isobutyl-5-methyl-6-oxo-6,7,8,9-tetrahydro-5H-pyrimido[4,5-b][1,4]diazepin-2-ylamino)-3-methoxy-benzamide], the IC50 is below 1000 nM.
Consider `COc1cc(C(=O)NC2CC(C)(C)N(C)C(C)(C)C2)ccc1Nc1ncc2c(n1)N(CC(C)C)CCC(=O)N2C` [compound 306, 4-(9-Isobutyl-5-methyl-6-oxo-6,7,8,9-tetrahydro-5H-pyrimido[4,5-b][1,4]diazepin-2-ylamino)-3-methoxy-N-(1,2,2,6,6-pentamethyl-piperidin-4-yl)-benzamide], for which the IC50 is below 1000 nM.
As to `CCN(CC)CCNC(=O)c1ccc(Nc2ncc3c(n2)N(CC(C)C)CCC(=O)N3C)c(OC)c1` [compound 307, N-(2-Diethylamino-ethyl)-4-(9-isobutyl-5-methyl-6-oxo-6,7,8,9-tetrahydro-5H-pyrimido[4,5-b][1,4]diazepin-2-ylamino)-3-methoxy-benzamide], the IC50 is below 1000 nM.
`COc1cc(C(=O)NC2CCN(C)CC2)ccc1Nc1ncc2c(n1)N(c1ccccc1C)CCC(=O)N2C` [compound 308, 3-Methoxy-4-(5-methyl-6-oxo-9-o-tolyl-6,7,8,9-tetrahydro-5H-pyrimido[4,5-b][1,4]diazepin-2-ylamino)-N-(1-methyl-piperidin-4-yl)-benzamide]: the IC50 was below 10000 nM.
Turning to `COc1cc(C(=O)NC2CCCN(C)C2)ccc1Nc1ncc2c(n1)N(c1ccccc1C)CCC(=O)N2C` (stereo not shown) [compound 309, 3-Methoxy-4-(5-methyl-6-oxo-9-o-tolyl-6,7,8,9-tetrahydro-5H-pyrimido[4,5-b][1,4]diazepin-2-ylamino)-N-(1-methyl-piperidin-3-yl)-benzamide], the IC50 was below 10000 nM.
Take `COc1cc(C(=O)NC2CCN(Cc3ccccc3)CC2)ccc1Nc1ncc2c(n1)N(c1ccccc1C)CCC(=O)N2C` [compound 310, N-(1-Benzyl-piperidin-4-yl)-3-methoxy-4-(5-methyl-6-oxo-9-o-tolyl-6,7,8,9-tetrahydro-5H-pyrimido[4,5-b][1,4]diazepin-2-ylamino)-benzamide]: the IC50 was below 10000 nM.

For the origin of these results see patent US8563542B2 (Cyclacel Limited, priority 2007, dated 2013).
